# Results published in paper PMC7126937 (Bioorganic & Medicinal Chemistry, 2014).
# System: influenza virus A/California/7/09 (H1N1)pdm09
# Format: cell-based, influenza virus A/California/07/09 (H1N1)pdm09
# Settings: not given
row,SMILES,"Antiviral (virus-inhibiting) activity, in words"
1,"CC1(C)C2CC[C@@]1(C)C(=O)C2 [Compound 1, (1R)-(+)-camphor, reference compound]",does not possess a virus-inhibiting activity
2,"CC1(C)[C@@H]2CC[C@@]1(C)/C(=N/CCC/N=C1\C[C@H]3CC[C@]1(C)C3(C)C)C2 [Compound 2a, N^1E,N^3E-N^1,N^3-bis((1R,2R,4R)-1,7,7-trimethylbicyclo[2.2.1]heptan-2-ylidene)propane-1,3-diamine]",highest antiviral activity
3,"CC1(C)[C@@H]2CC[C@@]1(C)/C(=N/CCCCCC/N=C1\C[C@H]3CC[C@]1(C)C3(C)C)C2 [Compound 2b, N^1E,N^6E-N^1,N^6-bis((1R,2R,4R)-1,7,7-trimethylbicyclo[2.2.1]heptan-2-ylidene)hexane-1,6-diamine]",highest antiviral activity
4,"CC1(C)[C@@H]2CC[C@@]1(C)/C(=N/CCCCCCC/N=C1\C[C@H]3CC[C@]1(C)C3(C)C)C2 [Compound 2c, N^1E,N^7E-N^1,N^7-bis((1R,2R,4R)-1,7,7-trimethylbicyclo[2.2.1]heptan-2-ylidene)heptane-1,7-diamine]",highest antiviral activity
5,"CC1(C)[C@@H]2CC[C@@]1(C)/C(=N/CCCCCCCCCCCC/N=C1\C[C@H]3CC[C@]1(C)C3(C)C)C2 [Compound 2e, N^1E,N^12E-N^1,N^12-bis((1R,2R,4R)-1,7,7-trimethylbicyclo[2.2.1]heptan-2-ylidene)dodecane-1,12-diamine]",highest antiviral activity
6,"CC1(C)[C@@H]2CC[C@@]1(C)/C(=N/c1ccc(Cc3ccc(/N=C4\C[C@H]5CC[C@]4(C)C5(C)C)cc3)cc1)C2 [Compound 2f, (E)-N-((1R,2R,4R)-1,7,7-trimethylbicyclo[2.2.1]heptan-2-ylidene)-4-(4-((E)-((1R,2R,4R)-1,7,7-trimethylbicyclo[2.2.1]heptan-2-ylidene)amino)benzyl)aniline]",did not exhibit high antiviral activity
7,"CC1(C)[C@@H]2CC[C@@]1(C)[C@H](Nc1ccc(Oc3ccc(N[C@@H]4C[C@H]5CC[C@]4(C)C5(C)C)cc3)cc1)C2 [Compound 3g, (1R,2R,4R)-1,7,7-trimethyl-N-(4-(4-((1R,2R,4R)-1,7,7-trimethylbicyclo[2.2.1]heptan-2-ylamino)phenoxy)phenyl)bicyclo[2.2.1]heptan-2-amine]",did not exhibit high antiviral activity
8,"CC1(C)[C@@H]2CC[C@@]1(C)/C(=N/c1ccc(Cc3ccc(N)cc3)cc1)C2 [Compound 5f, (E)-4-(4-aminobenzyl)-N-((1R,2R,4R)-1,7,7-trimethylbicyclo[2.2.1]heptan-2-ylidene)aniline]",did not exhibit high antiviral activity

# System: influenza virus A/California/7/09 (H1N1)pdm09
# Settings: cited from earlier work
row,SMILES,ED50 (50% effective concentration) [µM]
1,NC(=O)c1ncn([C@@H]2O[C@H](CO)[C@@H](O)[C@H]2O)n1 [Ribavirin],24.6
